According to US20120225862A1, “HETEROARYL BENZAMIDES, COMPOSITIONS AND METHODS OF USE” (AUCKLAND UNIVSERVICES LIMITED, priority 2009, published 2012):
pIC50: −log10 of the molar value.

What was measured:
RCC4 [1] = experiment: 3H-2-deoxyglucose uptake, RCC4; assay type: cell-based, human; conditions: 3H-2-deoxyglucose, two days of treatment, 5 μM
Procedure: One hundred thousand cells were plated into 6-well plates. The following day, the cells were treated with vehicle or drug and incubated for the indicated time. Cells were washed twice in phosphate buffered saline and low glucose media was added for 30 minutes. Cells were then incubated with 0.5 microCi of tritiated-2-deoxyglucose and incubated for an hour at 37° C. Cells were washed twice in PBS and then lysed in 0.2 N NaOH and 0.2% SDS. Lysates were transferred to scintillation tubes with scintillation fluid and quantified by scintillation counter.
One hundred thousand cells were plated per well in a six-well plate. The next day, cells were treated with the indicated concentration of drug and incubated for the indicated time. Cells were then washed twice with phosphate-buffered saline, incubated in low-glucose medium for 30 minutes, and ^3H-2-deoxyglucose (0.5 μCi) was added in 1 ml of glucose-free media for an additional hour. Cells were washed twice in PBS and lysed (0.2 N NaOH and 0.2% sodium dodecyl sulfate). Glucose uptake was quantified with a scintillation counter.

786-O [2] = experiment: FDG-PET imaging of 786-O xenografts; assay type: in vivo, mice; conditions: for glucose uptake within tumors by FDG-PET: 786-O xenografts in CD-1 nude mice, three daily i.p. doses (11.6 mg/kg)
Procedure: (§1) FIG. 5A-E In vivo monitoring and efficacy of compound 47. […] 786-O, a renal clear cell carcinoma with a naturally occurring VHL mutation, were implanted subcutaneously into the flanks of CD-1 nude mice. Representative axial cross section of a mouse prior to treatment (left) and following three daily i.p. injections with compound 85 (11.6 mg/kg)(right), overlaid over CT scan. (B) Quantitatively, compound 85 inhibits FDG-PET in mouse xenografts. Quantification of FDG-PET inhibition by compound 85 as determined by the 90th percentile ROI for percent injected dose per gram (% ID/g) (*p<0.01). (C) Compound 85 is not toxic to normal tissues. (a, b) Kidney of vehicle- and compound 85-treated animals. (c, d) Spleen of vehicle- and compound 85-treated animals. (e, f) Liver of vehicle- and compound 85-treated animals. (g, h) Heart of vehicle- and compound 85-treated animals. (i, j) Salivary gland of vehicle- and compound 85-treated animals. (k, l) Brain of vehicle- and compound 85-treated animals. Scale bar represents 100 microns. (D) Compound 85 delays tumor growth. 786-O tumor-bearing mice were treated daily with vehicle or compound 85 (11.6 mg/kg for the first 3 days, followed by 7.8 mg/kg for the next week)(*p<0.005). (E) Compound 85 delays tumor growth in cells that have lost VHL. ACHN cells expressing a short hairpin RNA to VHL were implanted subcutaneously into the flanks of immunocompromised mice. Once tumors reached an average of >20 mm^3, mice were treated daily with compound 85 or vehicle (*p<0.05). All error bars represent the standard error of the mean.
In Vivo Studies and Immunohistochemistry. All experiments were approved by Stanford's Administrative Panel on Laboratory Animal Care (APLAC) and in accordance with both institutional and national guidelines. Five million cells were implanted subcutaneously into the flanks of nude mice (4-6 weeks old)(Charles River Laboratories). Tumors were measured with calipers. Volume was calculated by the following formula: width^2×0.5 length. […]

RCC4 [3] = experiment: XTT IC50 / viability assay, RCC4 cells; assay type: cell-based, human; conditions: for pIC50: Homo sapiens, RCC4, 96 h, XTT assay, four days
Method in brief: (§2)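 RCC4 parental and VHL-reintroduced RCC4/VHL cells (DMEM, 10% FCS) treated with serially diluted drug for four days. Viability by XTT (0.3 mg/mL) with N-methyl dibenzopyrazine methyl sulfate, 1–2 h at 37 °C, absorbance 450 nm; IC50 by linear interpolation.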

RCC4/VHL [4] = experiment: XTT IC50 assay, selectivity RCC4 versus RCC4 with VHL-reintroduced; assay type: cell-based, human; conditions: selectivity ratio of XTT IC50 values, RCC4 vs RCC4/VHL
Method in brief: as §2

RCC4 [5] = experiment: Clonogenic survival, RCC4; assay type: cell-based, human; conditions: RCC4 (VHL-deficient), 5 μM, 10 days
Procedure: Three hundred cells were plated into 60-mm tissue culture dishes in DMEM. The next day, cells were treated with vehicle or drug and were further incubated for an additional 10 days. […] The stain was removed and plates were washed in deionized water. Colonies were quantified. All conditions were measured in triplicate and all experiments were performed in triplicate.
For 2,3-bis[2-methoxy-4-nitro-5-sulfophenyl]-2H-tetrazolium-5-carboxanilide (XTT) assays, five thousand cells were plated in 96-well plates. The next day, vehicle (DMSO) or drug was added by serial dilution. […] Metabolism of XTT was quantified by measuring the absorbance at 450 nm. IC50s were calculated using linear interpolation. For clonogenic survival assays, three hundred cells were plated per 60 mm tissue culture dish. The cells were allowed to attach overnight and then treated with vehicle or drug for […]. […] All conditions were measured in triplicate and each experiment was done in duplicate or triplicate. To determine necrosis, cells were treated with drug for a given time point. Media and cells were collected, centrifugated, and resuspended in 0.4% trypan blue (Invitrogen). Live and dead cells were counted on a hematocytometer.

RCC4/VHL [6] = experiment: Clonogenic survival, RCC4/VHL; assay type: cell-based, human; conditions: RCC4/VHL (wild-type VHL), 5 μM, 10 days
Procedure: Three hundred cells were plated into 60-mm tissue culture dishes in DMEM. The next day, cells were treated with vehicle or drug and were further incubated for an additional 10 days. After 10 days, the media was removed and colonies were fixed and stained in 95% ethanol and 0.1% crystal violet for 15 minutes. The stain was removed and plates were washed in deionized water. Colonies were quantified. All conditions were measured in triplicate and all experiments were performed in triplicate.
For 2,3-bis[2-methoxy-4-nitro-5-sulfophenyl]-2H-tetrazolium-5-carboxanilide (XTT) assays, five thousand cells were plated in 96-well plates. The next day, vehicle (DMSO) or drug was added by serial dilution. Four days later, media were aspirated, XTT solution (0.3 mg/ml of XTT (Sigma), 2.65 mg/ml N-methyl dibenxopyrazine methyl sulfate (Simga) in phenol red-free media) was added, and the plates were incubated at 37° C. for 1-2 hours. Metabolism of XTT was quantified by measuring the absorbance at 450 nm. IC50s were calculated using linear interpolation. For clonogenic survival assays, three hundred cells were plated per 60 mm tissue culture dish. The cells were allowed to attach overnight and then treated with vehicle or drug for 14 days. […] All conditions were measured in triplicate and each experiment was done in duplicate or triplicate. […] Live and dead cells were counted on a hematocytometer.

[7] = Normal tissue toxicity (histology); assay type: in vivo; conditions: treated mice; kidney, spleen, liver, heart, salivary gland, brain
Procedure: as §1, with “(E) Compound 85 delays tumor growth in cells that have lost VHL. ACHN cells expressing a short hairpin RNA to VHL were implanted subcutaneously into the flanks of immunocompromised mice. Once tumors reached an average of >20 mm^3, mice were treated daily with compound 85 or vehicle (*p<0.05). All error bars represent the standard error of the mean.” left out
In Vivo Studies and Immunohistochemistry. […] Tumors were measured with calipers. Volume was calculated by the following formula: width^2×0.5 length. […]

786-O [8] = experiment: Xenograft tumor growth, 786-O; assay type: in vivo, mice; conditions: daily, 11.6 mg/kg for 3 days then 7.8 mg/kg, ten to fourteen days, vs vehicle
Procedure: (§3) Five million cells were injected into the flanks of nu/nu mice (4-6 weeks old males) and allowed to grow to approximately 50 mm^3. The mice were injected daily by intra-peritoneal to deliver either vehicle or drug. Tumors were measured every other day and tumor volume was calculated as 0.5 length by width squared.
(§4) In Vivo Studies and Immunohistochemistry. All experiments were approved by Stanford's Administrative Panel on Laboratory Animal Care (APLAC) and in accordance with both institutional and national guidelines. Five million cells were implanted subcutaneously into the flanks of nude mice (4-6 weeks old)(Charles River Laboratories). Tumors were measured with calipers. Volume was calculated by the following formula: width^2×0.5 length. Once tumors reached an average size of >20 mm^3, mice were randomized into vehicle (DMSO diluted in 16% cremaphor EL/PBS) or treated groups. Mice were treated with compound 85 (11.6 mg/kg for the first 3 days, followed by 7.8 mg/kg for the 7-9 days). Five-micron sections were cut for immunohistochemistry. Sections were counterstained with hematoxylin and eosin. For 2-[^18F]-fluoro-2-deoxy-glucose-positron emission tomography imaging, mice bearing tumors were fasted overnight. The next day, the mice were anesthetized with 2% isoflurane and injected intraperitoneally with 250 μCi of FDG. […]

ACHN shVHL = experiment: Xenograft tumor growth, ACHN expressing shRNA to VHL; assay type: in vivo, mice; conditions: daily systemic treatment ten to fourteen days, vs vehicle
Procedure: as §3, §4

ACHN = experiment: Xenograft tumor growth, ACHN with wild-type VHL; assay type: in vivo, mice; conditions: daily treatment vs vehicle control
Procedure: as §3, §4

[9] = Solubility (comparison in words); assay type: physicochemical

Structure (SMILES) | glucose uptake in VHL-deficient RCC4 cells (RCC4 [1]) | glucose uptake within tumors by FDG-PET (786-O [2]) | pIC50 (RCC4 [3]) | number of RCC4 cells compared to RCC4/VHL (XTT metabolic activity) (RCC4 [3]; four days of treatment, concentration-dependent, FIG. 2A) | Ratio (RCC4:RCC/VHL) (RCC4/VHL [4]) | clonogenic survival of RCC4 (RCC4 [5]) | clonogenic survival of RCC4/VHL (RCC4/VHL [6]) | tumor FDG uptake, quantified (% ID/g) (786-O [2]; 786-O xenografts, FIG. 5B) | normal tissue toxicity [7] | tumor growth, 786-O xenografts (786-O [8]) | tumor growth, ACHN shVHL xenografts (ACHN shVHL) | tumor growth, ACHN wild-type VHL xenografts (ACHN) | solubility relative to compound 47 [9]
Cc1cccc(Nc2nc(-c3ccncc3)cs2)c1 [4-(pyridin-4-yl)-N-(m-tolyl)thiazol-2-amine, reference compound] | did not decrease glucose uptake | did not have a decrease in glucose uptake | – | – | – | – | – | – | – | – | – | – | –
COc1cccc(S(=O)(=O)NCc2ccc(C(=O)Nc3cccnc3)cc2)c1 [Example 18, 4-((3-Methoxyphenylsulfonamido)methyl)-N-(pyridin-3-yl)benzamide] | – | – | 4.70 to 6.00 | significant decrease in the number of RCC4 cells | b (“b” reflects from 10 to 100) | specifically toxic to RCC4 cells | relatively unaffected | – | – | – | – | – | –
CN1CCN(c2ccc(S(=O)(=O)NCc3ccc(C(=O)Nc4cccnc4)cc3)cc2)CC1 [Example 76, 4-((4-(4-Methylpiperazin-1-yl)phenylsulfonamido)methyl)-N-(pyridin-3-yl)benzamide] | – | striking decrease in glucose uptake within the tumors | > 6.00 | – | c (“c” reflects a ratio of >100) | – | – | consistently decreased FDG uptake | no normal tissue toxicity | markedly delayed tumor growth | markedly delayed tumor growth | grew at similar rates | more soluble
